# According to article PMC8642306 (Lung cancer (Amsterdam, Netherlands), 2021):
# Values joined by “and” are separate entries in the source; they are usually repeats but may differ in a detail not shown here. Identical values can stand only once.
# Legend:
# [1] = tested on: head and neck squamous cancer cell lines; details: cited from earlier work
# [2] = Plasma pharmacokinetics after oral SNX-5422; format: in vivo, human
# [3] = tested on: patients with solid tumors; details: SNX-5422 alone; cited from earlier work
# [4] = tested on: patients with advanced lung cancers; experiment: Dose determination; format: in vivo, human; details: for Dose-limiting toxicities (DLTs): cycle 1, with carboplatin-paclitaxel
# [5] = tested on: patients with advanced lung cancers; details: human, in vivo
# [6] = tested on: patients with NSCLC; experiment: Anti-tumor activity; format: in vivo, human
# [7] = SNX-5422 doses of 50, 75, and 100 mg/m^2
structure (smiles),measurement,setting,value
CC1(C)CC(=O)c2c(C(F)(F)F)nn(-c3ccc(C(N)=O)c(N[C@H]4CC[C@H](O)CC4)c3)c2C1 [SNX-2112],Activity with carboplatin and paclitaxel,[1],combinatorial activity
same,"AUC0–24 of SNX-2112, dose proportionality",[2]; [7],increased in a slightly greater than proportional manner
same,"Maximum plasma concentration of SNX-2112, dose proportionality",[2]; [7],increased in approximate proportion to dose
same,half-life,"[2]; human, plasma, po",~8 h
CC1(C)CC(=O)c2c(C(F)(F)F)nn(-c3ccc(C(N)=O)c(N[C@H]4CC[C@H](OC(=O)CN)CC4)c3)c2C1 [SNX-5422],Single-agent maximum tolerated dose (MTD),[3],100 mg/m^2
same,Concentrations of SNX-5422 in samples collected after dosing,[2]; oral SNX-5422,no measurable concentrations
same,Dose-limiting toxicities (DLTs),[4]; 50 mg/m^2 cohort (n=3),no DLTs
same,Dose-limiting toxicities (DLTs),[4]; 75 mg/m^2 cohort (n=4),no DLTs
same,Maximum tolerated dose (MTD) of SNX-5422,"[4]; qod, in combination with carboplatin (AUC 5) and paclitaxel (175 mg/m^2)",100 mg/m^2
same,"Any treatment-related AE, All Grade",[5],7 (54) n (%)
same,"Any treatment-related AE, Grade 1",[5],1 (8) n (%)
same,"Any treatment-related AE, Grade 2",[5],4 (31) n (%)
same,"Any treatment-related AE, Grade 3",[5],2 (15) n (%)
same,"Any treatment-related AE, Grade 4",[5],0 n (%)
same,"Decreased appetite, All Grade",[5],2 (15) n (%)
same,"Decreased appetite, Grade 1",[5],1 (8) n (%)
same,"Decreased appetite, Grade 2",[5],1 (8) n (%)
same,"Decreased appetite, Grade 3",[5],0 n (%)
same,"Decreased appetite, Grade 4",[5],0 n (%)
same,"Diarrhea, All Grade",[5],3 (23) n (%)
same,"Diarrhea, Grade 1",[5],0 n (%)
same,"Diarrhea, Grade 2",[5],1 (8) n (%)
same,"Diarrhea, Grade 3",[5],2 (15) n (%)
same,"Diarrhea, Grade 4",[5],0 n (%)
same,"Fatigue, All Grade",[5],2 (15) n (%)
same,"Fatigue, Grade 1",[5],1 (8) n (%)
same,"Fatigue, Grade 2",[5],1 (8) n (%)
same,"Fatigue, Grade 3",[5],0 n (%)
same,"Fatigue, Grade 4",[5],0 n (%)
same,"Nausea, All Grade",[5],2 (15) n (%)
same,"Nausea, Grade 1",[5],2 (15) n (%)
same,"Nausea, Grade 2",[5],0 n (%)
same,"Nausea, Grade 3",[5],0 n (%)
same,"Nausea, Grade 4",[5],0 n (%)
same,Treatment-related decreased appetite,[5],15%
same,Treatment-related diarrhea,[5],23%
same,Treatment-related fatigue,[5],15%
same,Treatment-related grade 3/4 diarrhea,[5],15%
same,Treatment-related grade 3/4 nausea,[5],0%
same,Treatment-related nausea,[5],15%
same,Duration of disease control on single-agent maintenance,"[6]; HER2, RET, KRAS, and EGFR-mutations",4–12 months
same,Time on SNX-5422 maintenance,"[6]; another patient with KRAS-mutant NSCLC, unconfirmed response",~ 5 months
same,Time on SNX-5422 maintenance,"[6]; one patient with HER2-mutant NSCLC, partial response",12 months and ~ 12 months
same,Time on SNX-5422 maintenance prior to progression,"[6]; one patient with KRAS-mutant NSCLC, partial response",~ 7 months
